According to paper PMC8800111 (The Journal of Biological Chemistry, 2021):

How the values were obtained:
Type in all cases: cell-based
[1] = target: proteins of U3A human fibrosarcoma cells (4462 proteins detected) (Homo sapiens, UniProt P11388); settings: protein TOP2A; U3A cells
[2] = target: proteins of U3A human fibrosarcoma cells (4462 proteins detected) (Homo sapiens, UniProt Q9NRN7); settings: protein AASDHPPT; U3A cells
[3] = target: proteins of U3A human fibrosarcoma cells (4462 proteins detected) (Homo sapiens, UniProt O14646); settings: protein CHD1, U3A cells
[4] = target: proteins of U3A human fibrosarcoma cells (4462 proteins detected) (Homo sapiens, UniProt Q9NVH2); settings: protein INTS7; soluble abundance after heat, U3A cells
Chain of proteins of U3A human fibrosarcoma cells (4462 proteins detected) (Homo sapiens, UniProt Q9NVH2) (Q9NVH2 whole entry): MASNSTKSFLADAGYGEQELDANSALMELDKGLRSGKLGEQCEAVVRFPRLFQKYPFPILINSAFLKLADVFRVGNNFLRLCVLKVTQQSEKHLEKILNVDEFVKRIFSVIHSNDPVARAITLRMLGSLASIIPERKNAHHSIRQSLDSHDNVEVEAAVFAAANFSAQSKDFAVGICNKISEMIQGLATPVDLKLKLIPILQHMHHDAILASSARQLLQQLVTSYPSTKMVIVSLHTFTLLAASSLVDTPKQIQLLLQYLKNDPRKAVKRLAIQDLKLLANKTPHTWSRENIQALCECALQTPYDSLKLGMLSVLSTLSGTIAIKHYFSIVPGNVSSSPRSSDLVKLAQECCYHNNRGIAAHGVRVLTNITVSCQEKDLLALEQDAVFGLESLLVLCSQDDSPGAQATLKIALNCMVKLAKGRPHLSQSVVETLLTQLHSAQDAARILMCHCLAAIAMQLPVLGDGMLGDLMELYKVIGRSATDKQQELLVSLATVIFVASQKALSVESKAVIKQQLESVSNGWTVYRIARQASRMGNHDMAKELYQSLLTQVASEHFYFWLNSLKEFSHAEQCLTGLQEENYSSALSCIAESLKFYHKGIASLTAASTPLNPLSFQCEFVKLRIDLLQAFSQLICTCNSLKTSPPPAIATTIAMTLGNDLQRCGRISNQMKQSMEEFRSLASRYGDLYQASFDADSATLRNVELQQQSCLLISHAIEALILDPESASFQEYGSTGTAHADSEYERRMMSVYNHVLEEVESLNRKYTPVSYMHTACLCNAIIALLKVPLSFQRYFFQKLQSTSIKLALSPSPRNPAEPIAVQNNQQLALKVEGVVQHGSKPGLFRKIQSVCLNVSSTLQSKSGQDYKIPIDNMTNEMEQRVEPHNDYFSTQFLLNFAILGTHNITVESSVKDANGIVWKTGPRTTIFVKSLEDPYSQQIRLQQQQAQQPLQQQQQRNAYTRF

[5] = target: proteins of U3A human fibrosarcoma cells (4462 proteins detected) (Homo sapiens, UniProt Q9HAN9); settings: protein NMNAT1, U3A cells
Chain of proteins of U3A human fibrosarcoma cells (4462 proteins detected) (Homo sapiens, UniProt Q9HAN9) (Q9HAN9 whole entry): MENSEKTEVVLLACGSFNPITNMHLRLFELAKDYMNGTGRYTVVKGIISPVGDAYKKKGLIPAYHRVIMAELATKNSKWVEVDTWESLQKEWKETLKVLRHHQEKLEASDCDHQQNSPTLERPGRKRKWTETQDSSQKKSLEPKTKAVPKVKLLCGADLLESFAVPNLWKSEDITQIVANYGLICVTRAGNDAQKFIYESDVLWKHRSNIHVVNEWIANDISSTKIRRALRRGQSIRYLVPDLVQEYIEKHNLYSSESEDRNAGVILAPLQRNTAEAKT

[6] = target: proteins of U3A human fibrosarcoma cells (4462 proteins detected) (Homo sapiens, UniProt P62937); settings: protein PPIA
Chain of proteins of U3A human fibrosarcoma cells (4462 proteins detected) (Homo sapiens, UniProt P62937) (P62937 whole entry): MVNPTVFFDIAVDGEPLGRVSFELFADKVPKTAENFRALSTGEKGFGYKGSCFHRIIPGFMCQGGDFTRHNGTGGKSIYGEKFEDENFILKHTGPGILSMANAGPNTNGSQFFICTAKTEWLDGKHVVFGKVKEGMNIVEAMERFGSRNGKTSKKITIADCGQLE

[7] = target: proteins of U3A human fibrosarcoma cells (4462 proteins detected) (Homo sapiens, UniProt P46939); settings: protein UTRN; soluble abundance after heat, U3A cells
[8] = target: proteins of U3A human fibrosarcoma cells (4462 proteins detected) (Homo sapiens, UniProt Q8N465); settings: protein D2HGDH; soluble abundance after heat, U3A cells
[9] = target: proteins of U3A human fibrosarcoma cells (4462 proteins detected) (Homo sapiens, UniProt P06748); settings: protein NPM1; U3A cells
[10] = target: proteins of U3A human fibrosarcoma cells (4462 proteins detected) (Homo sapiens, UniProt Q08623); settings: protein HDHD1, U3A cells
Chain of proteins of U3A human fibrosarcoma cells (4462 proteins detected) (Homo sapiens, UniProt Q08623) (Q08623 whole entry): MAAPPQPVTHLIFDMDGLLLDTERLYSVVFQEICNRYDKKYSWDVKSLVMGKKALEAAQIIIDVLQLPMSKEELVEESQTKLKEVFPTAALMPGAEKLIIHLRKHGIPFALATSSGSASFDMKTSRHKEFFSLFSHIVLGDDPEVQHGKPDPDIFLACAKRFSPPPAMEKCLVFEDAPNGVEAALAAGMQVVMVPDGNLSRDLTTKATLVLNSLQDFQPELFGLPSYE

[11] = target: proteins of U3A human fibrosarcoma cells (4462 proteins detected) (Homo sapiens, UniProt Q16401); settings: protein PSMD5; soluble abundance after heat, U3A cells
Chain of proteins of U3A human fibrosarcoma cells (4462 proteins detected) (Homo sapiens, UniProt Q16401) (Q16401 whole entry): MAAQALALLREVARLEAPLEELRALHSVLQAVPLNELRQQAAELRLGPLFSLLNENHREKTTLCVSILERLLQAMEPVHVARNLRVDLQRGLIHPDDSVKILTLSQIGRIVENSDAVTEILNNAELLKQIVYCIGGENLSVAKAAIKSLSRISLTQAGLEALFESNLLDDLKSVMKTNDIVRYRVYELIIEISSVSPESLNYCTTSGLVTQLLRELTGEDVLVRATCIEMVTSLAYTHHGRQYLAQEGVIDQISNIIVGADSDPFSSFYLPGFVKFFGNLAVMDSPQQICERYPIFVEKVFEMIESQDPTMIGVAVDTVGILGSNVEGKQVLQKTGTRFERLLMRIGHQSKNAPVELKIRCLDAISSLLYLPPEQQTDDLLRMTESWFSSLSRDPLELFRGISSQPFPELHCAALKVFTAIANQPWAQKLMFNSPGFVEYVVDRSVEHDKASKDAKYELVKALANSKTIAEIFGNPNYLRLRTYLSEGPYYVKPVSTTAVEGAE

[12] = target: proteins of U3A human fibrosarcoma cells (4462 proteins detected) (Homo sapiens, UniProt Q9NYY8); settings: protein FASTKD2; U3A cells
[13] = target: proteins of U3A human fibrosarcoma cells (4462 proteins detected) (Homo sapiens, UniProt Q9H6T3); settings: protein RPAP3; soluble abundance after heat, U3A cells
[14] = target: proteins of U3A human fibrosarcoma cells (4462 proteins detected) (Homo sapiens, UniProt Q9NRL2); settings: protein BAZ1A; U3A cells
[15] = target: proteins of U3A human fibrosarcoma cells (4462 proteins detected) (Homo sapiens, UniProt P35250); settings: protein RFC2; U3A cells
Chain of proteins of U3A human fibrosarcoma cells (4462 proteins detected) (Homo sapiens, UniProt P35250) (P35250 whole entry): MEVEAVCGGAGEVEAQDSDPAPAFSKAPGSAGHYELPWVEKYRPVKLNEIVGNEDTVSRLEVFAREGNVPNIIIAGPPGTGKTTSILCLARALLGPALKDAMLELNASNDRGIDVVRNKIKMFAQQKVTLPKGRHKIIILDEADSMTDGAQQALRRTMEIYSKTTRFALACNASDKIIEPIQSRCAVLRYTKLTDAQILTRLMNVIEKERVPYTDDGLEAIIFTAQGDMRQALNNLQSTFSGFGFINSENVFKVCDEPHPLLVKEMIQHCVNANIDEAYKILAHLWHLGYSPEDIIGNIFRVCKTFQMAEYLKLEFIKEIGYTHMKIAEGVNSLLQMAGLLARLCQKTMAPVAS

[16] = target: proteins of U3A human fibrosarcoma cells (4462 proteins detected) (Homo sapiens, UniProt Q15269); settings: protein PWP2; U3A cells
[17] = target: proteins of U3A human fibrosarcoma cells (4462 proteins detected) (Homo sapiens, UniProt Q658Y4); settings: protein FAM91A1; soluble abundance after heat, U3A cells
[18] = target: proteins of U3A human fibrosarcoma cells (4462 proteins detected) (Homo sapiens, UniProt P52943); settings: protein CRIP2, U3A cells
Chain of proteins of U3A human fibrosarcoma cells (4462 proteins detected) (Homo sapiens, UniProt P52943) (P52943 whole entry): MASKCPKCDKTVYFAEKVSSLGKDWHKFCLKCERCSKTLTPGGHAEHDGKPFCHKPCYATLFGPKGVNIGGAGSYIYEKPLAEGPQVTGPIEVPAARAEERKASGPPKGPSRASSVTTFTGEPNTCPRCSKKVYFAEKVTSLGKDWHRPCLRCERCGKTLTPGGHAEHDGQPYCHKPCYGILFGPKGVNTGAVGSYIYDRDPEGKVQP

[19] = target: proteins of U3A human fibrosarcoma cells (4462 proteins detected) (Homo sapiens, UniProt Q96TC7); settings: protein RMDN3; U3A cells
[20] = target: proteins of U3A human fibrosarcoma cells (4462 proteins detected) (Homo sapiens, UniProt Q15041); settings: protein ARL6IP1; U3A cells
Chain of proteins of U3A human fibrosarcoma cells (4462 proteins detected) (Homo sapiens, UniProt Q15041) (Q15041 whole entry): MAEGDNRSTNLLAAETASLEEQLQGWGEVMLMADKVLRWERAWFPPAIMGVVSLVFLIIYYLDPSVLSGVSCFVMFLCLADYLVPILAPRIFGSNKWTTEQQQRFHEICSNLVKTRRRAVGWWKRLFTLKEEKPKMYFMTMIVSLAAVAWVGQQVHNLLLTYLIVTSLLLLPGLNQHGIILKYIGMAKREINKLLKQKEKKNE

[21] = target: proteins of U3A human fibrosarcoma cells (4462 proteins detected) (Homo sapiens, UniProt P22413); settings: protein ENPP1; U3A cells
[22] = target: proteins of U3A human fibrosarcoma cells (4462 proteins detected) (Homo sapiens, UniProt P63173); settings: protein RPL38; U3A cells
[23] = target: proteins of U3A human fibrosarcoma cells (4462 proteins detected) (Homo sapiens, UniProt O75147); settings: protein OBSL1, U3A cells
[24] = target: proteins of U3A human fibrosarcoma cells (4462 proteins detected) (Homo sapiens, UniProt A0FGR8); settings: protein ESYT2; U3A, 10 μM, 2 h
[25] = target: proteins of U3A human fibrosarcoma cells (4462 proteins detected) (Homo sapiens, UniProt P49247); settings: protein RPIA, U3A cells
[26] = target: proteins of U3A human fibrosarcoma cells (4462 proteins detected) (Homo sapiens, UniProt Q8IYW5); settings: protein RNF168; U3A cells
[27] = target: proteins of U3A human fibrosarcoma cells (4462 proteins detected) (Homo sapiens, UniProt P49207); settings: protein RPL34; U3A cells
[28] = target: proteins of U3A human fibrosarcoma cells (4462 proteins detected) (Homo sapiens, UniProt Q8IWW6); settings: protein ARHGAP12; soluble abundance after heat, U3A cells
Chain of proteins of U3A human fibrosarcoma cells (4462 proteins detected) (Homo sapiens, UniProt Q8IWW6) (Q8IWW6 whole entry): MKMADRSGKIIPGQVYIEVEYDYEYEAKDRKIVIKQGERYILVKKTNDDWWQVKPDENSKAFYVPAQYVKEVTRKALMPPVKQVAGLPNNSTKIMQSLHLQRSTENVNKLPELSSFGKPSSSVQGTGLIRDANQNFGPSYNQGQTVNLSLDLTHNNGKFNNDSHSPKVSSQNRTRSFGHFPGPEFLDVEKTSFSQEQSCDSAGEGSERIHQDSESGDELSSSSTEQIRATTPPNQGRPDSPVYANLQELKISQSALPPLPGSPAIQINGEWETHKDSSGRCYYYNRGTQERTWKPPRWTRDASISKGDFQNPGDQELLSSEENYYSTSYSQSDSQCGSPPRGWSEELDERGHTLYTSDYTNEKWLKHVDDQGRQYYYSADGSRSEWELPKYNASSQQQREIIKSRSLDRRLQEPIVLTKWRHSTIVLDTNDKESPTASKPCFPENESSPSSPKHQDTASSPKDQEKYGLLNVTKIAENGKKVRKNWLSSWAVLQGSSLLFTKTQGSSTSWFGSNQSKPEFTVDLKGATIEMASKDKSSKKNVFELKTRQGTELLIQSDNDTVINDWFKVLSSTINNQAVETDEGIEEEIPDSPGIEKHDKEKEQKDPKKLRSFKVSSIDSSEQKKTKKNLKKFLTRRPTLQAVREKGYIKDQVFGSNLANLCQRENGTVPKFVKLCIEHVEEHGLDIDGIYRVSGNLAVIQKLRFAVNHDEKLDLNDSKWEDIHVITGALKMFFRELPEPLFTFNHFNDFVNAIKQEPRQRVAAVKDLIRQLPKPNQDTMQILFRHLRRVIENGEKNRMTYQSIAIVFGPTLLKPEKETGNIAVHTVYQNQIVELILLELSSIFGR

[29] = target: proteins of U3A human fibrosarcoma cells (4462 proteins detected) (Homo sapiens, UniProt P56282); settings: protein POLE2; U3A cells
Chain of proteins of U3A human fibrosarcoma cells (4462 proteins detected) (Homo sapiens, UniProt P56282) (P56282 whole entry): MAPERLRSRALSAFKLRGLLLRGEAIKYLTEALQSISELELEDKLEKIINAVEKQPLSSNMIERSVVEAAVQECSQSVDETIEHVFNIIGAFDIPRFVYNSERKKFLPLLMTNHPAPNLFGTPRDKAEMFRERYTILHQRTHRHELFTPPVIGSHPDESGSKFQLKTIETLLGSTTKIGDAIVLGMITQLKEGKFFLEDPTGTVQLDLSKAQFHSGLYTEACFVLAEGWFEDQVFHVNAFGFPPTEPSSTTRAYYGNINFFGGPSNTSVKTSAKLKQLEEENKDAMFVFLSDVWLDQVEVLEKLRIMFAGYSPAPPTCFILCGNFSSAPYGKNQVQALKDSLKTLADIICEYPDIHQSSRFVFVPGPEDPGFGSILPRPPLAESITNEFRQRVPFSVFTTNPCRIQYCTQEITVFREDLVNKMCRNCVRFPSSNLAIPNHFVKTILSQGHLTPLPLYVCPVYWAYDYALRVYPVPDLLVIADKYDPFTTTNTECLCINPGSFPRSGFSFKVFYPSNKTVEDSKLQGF

[30] = target: proteins of U3A human fibrosarcoma cells (4462 proteins detected) (Homo sapiens, UniProt Q15043); settings: protein SLC39A14; soluble abundance after heat, U3A cells
Chain of proteins of U3A human fibrosarcoma cells (4462 proteins detected) (Homo sapiens, UniProt Q15043) (Q15043 31-492): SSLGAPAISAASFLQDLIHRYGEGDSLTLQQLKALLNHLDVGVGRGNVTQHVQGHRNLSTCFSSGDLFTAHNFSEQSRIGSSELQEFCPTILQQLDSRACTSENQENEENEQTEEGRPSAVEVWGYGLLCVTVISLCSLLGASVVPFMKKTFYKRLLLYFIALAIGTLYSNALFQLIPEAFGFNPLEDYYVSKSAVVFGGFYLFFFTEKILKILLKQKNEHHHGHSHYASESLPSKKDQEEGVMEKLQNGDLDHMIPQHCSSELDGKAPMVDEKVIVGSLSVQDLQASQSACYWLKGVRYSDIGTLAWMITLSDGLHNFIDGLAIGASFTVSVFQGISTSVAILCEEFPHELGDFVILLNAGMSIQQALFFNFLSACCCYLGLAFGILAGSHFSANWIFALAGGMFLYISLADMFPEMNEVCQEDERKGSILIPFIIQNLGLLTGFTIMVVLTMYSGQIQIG

CCc1nc(N)nc(N)c1-c1ccc(Cl)cc1 [pyrimethamine]
Log2 (PYR/DMSO) [1]: 0.18 | Log2 (PYR/DMSO) [2]: 0.17 | Log2 (PYR/DMSO) [3]: -0.04 | Log2 (PYR/DMSO) [4]: 0.15 | Log2 (PYR/DMSO) [5]: -0.04 | Log2 (PYR/DMSO) ([6]; U3A cells): -0.03 | Log2 (PYR/DMSO), PPIA ([6]; U3A, 10 μM, 2 h): -0.14 | Log2 (PYR/DMSO) [7]: 0.13 | Log2 (PYR/DMSO) [8]: 0.15 | Log2 (PYR/DMSO) [9]: 0.17 | Log2 (PYR/DMSO) [10]: -0.04 | Log2 (PYR/DMSO) [11]: 0.14 | Log2 (PYR/DMSO) [12]: 0.21 | Log2 (PYR/DMSO) [13]: 0.14 | Log2 (PYR/DMSO) [14]: 0.19 | Log2 (PYR/DMSO) [15]: 0.17 | Log2 (PYR/DMSO) [16]: 0.18 | Log2 (PYR/DMSO) [17]: 0.14 | Log2 (PYR/DMSO) [18]: -0.04 | Log2 (PYR/DMSO) [19]: 0.15 | Log2 (PYR/DMSO) [20]: 0.17 | Log2 (PYR/DMSO) [21]: 0.22 | Log2 (PYR/DMSO) [22]: 0.18 | Log2 (PYR/DMSO) [23]: -0.04 | Log2 (PYR/DMSO), ESYT2 [24]: 0.33 | Log2 (PYR/DMSO) [25]: -0.05 | Log2 (PYR/DMSO) [26]: 0.17 | Log2 (PYR/DMSO) [27]: 0.21 | Log2 (PYR/DMSO) [28]: 0.13 | Log2 (PYR/DMSO) [29]: 0.19 | Log2 (PYR/DMSO) [30]: 0.14
